Measured values published in US20260035364A1, “BICYCLIC TETRAHYDROTHIAZEPINE DERIVATIVES” (Hoffmann-La Roche Inc., priority 2022, published 2026).

Test system: primary human T-cells
Experiment: T-cell proliferation assay (CellTiter-Glo)
Assay type: cell-based
Settings: Homo sapiens, T-cell, 120 h, CD3 condition; for Emax: 5 days, 20 μM reference compound A1 = 100%, read-out: Emax proliferation (% activation); for EC50: proliferation after 5 days, CellTiter-Glo, read-out: Tcell Proliferation CD3 EC50
Description: Expanded primary human T-cells are thawed and cultured in RPMI 1640 (Gibco, #61870-010)+5% human serum (HS, Sigma, #H3667)+1 mM Sodium Pyruvate (Gibco, #11360-039)+50 μM 2-mercaptoethanol (Gibco, #31350-010) and 1× Pen-Strep (Life Technologies, #15140122) medium at density of 2 Mio/ml for 3 hours in 5% CO2, 37° C. and 95% humidity. For coating of plates, PBS++ only or PBS++ with CD3 antibody (concentration depending on donor and determined by CD3 titrations) is added 100 μl/well to Poly-D Lysine coated 96-well plates. Plates are sealed and incubated at room temperature for 3 hours on a table-top rocking platform. After incubation, plates are washed once with PBS−− and filled with 40 μl/well culture medium only. Compounds are then added (see next section) to medium only plates. After 3 hours of culturing the T-cells, cells are filtered through a cell strainer (Miltenyi Biotech, #130-041-407), counted again and concentration is adjusted to 1.25 Mio/ml.
Cells are then seeded 80 μl/well to the 40 µl/well including dispensed compounds according to plate layout. By adding cells, compounds are further diluted 1:3, and resulting in 100k cells/120 µl/well. After 48 hours 40 μl of supernatant is collected carefully from the top while not disturbing the cells. Cells are assessed for proliferation 5 days later by measuring […] using CellTiterGlo (Promega).
Compounds were added in a 5 or 6 pt dose response with the Tecan D300e Digital Dispenser, all conditions 3 times more concentrated than the end-concentration, since cells are added afterwards (80p1 cells to 40p1 prepared medium with treatment). The DR was starting at 20 μM or 10 μM final top concentration and a dilution factor of 3.333. The positive control was the reference compound A1 that was added in a dose response as well, additionally to 3 wells of only 20 μM representing the positive stimulator control. All wells were normalized with DMSO to a final concentration of 0.6% (0.2% end-concentration).
After 5 days, for detection of ATP which is directly proportional to the number of cells present per well, the CellTiter-Glo® 2.0 Reagent is used. After visual control for toxicity or precipitations of the tested compounds, the plates are equilibrated to room temperature for 45 minutes. CellTiter-Glo® 2.0 Reagent is equilibrated to room temperature as well. After equilibration, an equal amount of CellTiter-Glo reagent is added to the cells (80 µl/well) with an electronic multichannel pipette. Plates are placed on a rocking platform for 15 minutes at room temperature. After incubation, the bottom of the plates is sealed with backing tape. Luminescence is measured with PHERAstar FSX (interval time 0.5 sec, gain 3000, focal height 15 mm) and exported as CSV file for analysis in Genedata screener.
Calculations and Data Reporting CD3 and PBS plates were analysed separately in Genedata Screener using Roche Normalization PCT_POS_CTRL with DMSO set as Neutral Control and 20 μM of the reference compound A1 set as Stimulator Control/100%.
For CD3 conditions EC50 and Emax of the fitted sigmoidal curve were reported. If no curve could be fitted, the EC50 was reported as blank field and the Emax was based on individual data points. […] Compounds which activate unstimulated cells (see IL2 measurements) or compounds which negatively affected viability were flagged.

Compound | Emax | EC50
CS(=O)(=O)C1(c2nnc(-c3cc4c(cc3F)S(=O)(=O)C[C@H](N)C(=O)N4Cc3ccc(Cl)cc3)o2)CC1 [Example 1, (3R)-3-amino-5-[(4-chlorophenyl)methyl]-8-fluoro-7-[5-(1-methylsulfonylcyclopropyl)-1,3,4-oxadiazol-2-yl]-1,1-dioxo-2,3-dihydro-1λ6,5-benzothiazepin-4-one] | 99% | 2290 nM
CC(C)(c1nnc(-c2cc3c(cc2F)S(=O)(=O)C[C@H](N)C(=O)N3Cc2ccc(Cl)cc2)o1)S(C)(=O)=O [Example 2, (3R)-3-amino-5-[(4-chlorophenyl)methyl]-8-fluoro-7-[5-(1-methyl-1-methylsulfonyl-ethyl)-1,3,4-oxadiazol-2-yl]-1,1-dioxo-2,3-dihydro-1λ6,5-benzothiazepin-4-one] | 123% | 399 nM
CC(C)(c1nnc(-c2ccc3c(c2)N(Cc2ccc(OC(F)(F)C(F)F)cc2)C(=O)[C@@H](N)CS3(=O)=O)o1)S(C)(=O)=O [Example 3, (3R)-3-amino-7-[5-(1-methyl-1-methylsulfonyl-ethyl)-1,3,4-oxadiazol-2-yl]-1,1-dioxo-5-[[4-(1,1,2,2-tetrafluoroethoxy)phenyl]methyl]-2,3-dihydro-126,5-benzothiazepin-4-one] | 66% | 5070 nM
CC(C)(c1nnc(-c2ccc3c(c2)N(Cc2ccc(OCC(F)(F)F)cc2)C(=O)[C@@H](N)CS3(=O)=O)o1)S(C)(=O)=O [Example 6, (3R)-3-amino-7-[5-(1-methyl-1-methylsulfonyl-ethyl)-1,3,4-oxadiazol-2-yl]-1,1-dioxo-5-[[4-(2,2,2-trifluoroethoxy)phenyl]methyl]-2,3-dihydro-1λ6,5-benzothiazepin-4-one] | 62% | 5560 nM
CC(C)(c1nnc(-c2ccc3c(c2)N(Cc2ccc(SC(F)(F)F)cc2)C(=O)[C@@H](N)CS3(=O)=O)o1)S(C)(=O)=O [Example 7] | 76% | 3590 nM
CC(C)(c1nnc(-c2ccc3c(c2)N(Cc2ccc(-c4ccc(F)cn4)cc2)C(=O)[C@@H](N)CS3(=O)=O)o1)S(C)(=O)=O [Example 9, (3R)-3-amino-5-[[4-(5-fluoro-2-pyridyl)phenyl]methyl]-7-[5-(1-methyl-1-methylsulfonyl-ethyl)-1,3,4-oxadiazol-2-yl]-1,1-dioxo-2,3-dihydro-1λ6,5-benzothiazepin-4-one] | 82% | 2700 nM
CC(C)(c1nnc(-c2ccc3c(c2)N(Cc2ccc(-c4ccc(C(F)(F)F)cn4)cc2)C(=O)[C@@H](N)CS3(=O)=O)o1)S(C)(=O)=O [Example 10] | 145% | 1160 nM
CC(C)(c1nnc(-c2ccc3c(c2)N(Cc2ccc(OCc4ccccc4)cc2)C(=O)[C@@H](N)CS3(=O)=O)o1)S(C)(=O)=O [Example 11, (3R)-3-amino-5-[(4-benzyloxyphenyl)methyl]-7-[5-(1-methyl-1-methylsulfonyl-ethyl)-1,3,4-oxadiazol-2-yl]-1,1-dioxo-2,3-dihydro-1λ6,5-benzothiazepin-4-one] | 145% | 495 nM
CC(C)(c1nnc(-c2ccc3c(c2)N(Cc2ccc(OCc4ccc(F)cc4)cc2)C(=O)[C@@H](N)CS3(=O)=O)o1)S(C)(=O)=O [Example 12, (3R)-3-amino-5-[[4-[(4-fluorophenyl)methoxy]phenyl]methyl]-7-[5-(1-methyl-1-methylsulfonyl-ethyl)-1,3,4-oxadiazol-2-yl]-1,1-dioxo-2,3-dihydro-1λ6,5-benzothiazepin-4-one] | 151% | 590 nM
CC(C)(c1nnc(-c2ccc3c(c2)N(Cc2ccc(OCc4ccccc4F)cc2)C(=O)[C@@H](N)CS3(=O)=O)o1)S(C)(=O)=O [Example 14, (3R)-3-amino-5-[[4-[(2-fluorophenyl)methoxy]phenyl]methyl]-7-[5-(1-methyl-1-methylsulfonyl-ethyl)-1,3,4-oxadiazol-2-yl]-1,1-dioxo-2,3-dihydro-1λ6,5-benzothiazepin-4-one] | 113% | 1220 nM
CN(Cc1ccccc1)c1ccc(CN2C(=O)[C@@H](N)CS(=O)(=O)c3ccc(-c4nnc(C(C)(C)S(C)(=O)=O)o4)cc32)cc1 [Example 15, (3R)-3-amino-5-[[4-[benzyl(methyl)amino]phenyl]methyl]-7-[5-(1-methyl-1-methylsulfonyl-ethyl)-1,3,4-oxadiazol-2-yl]-1,1-dioxo-2,3-dihydro-1λ6,5-benzothiazepin-4-one] | 85% | 2670 nM
CC(C)(c1nnc(-c2ccc3c(c2)N(Cc2ccc(OC4CCCC4)cc2)C(=O)[C@@H](N)CS3(=O)=O)o1)S(C)(=O)=O [Example 16, (3R)-3-amino-5-[[4-(cyclopentoxy)phenyl]methyl]-7-[5-(1-methyl-1-methylsulfonyl-ethyl)-1,3,4-oxadiazol-2-yl]-1,1-dioxo-2,3-dihydro-1λ6,5-benzothiazepin-4-one] | 81% | 5360 nM
CC(C)(c1nnc(-c2ccc3c(c2)N(Cc2ccc(-c4noc(C(F)(F)F)n4)cc2)C(=O)[C@@H](N)CS3(=O)=O)o1)S(C)(=O)=O [Example 17, (3R)-3-amino-7-[5-(1-methyl-1-methylsulfonyl-ethyl)-1,3,4-oxadiazol-2-yl]-1,1-dioxo-5-[[4-[5-(trifluoromethyl)-1,2,4-oxadiazol-3-yl]phenyl]methyl]-2,3-dihydro-1λ6,5-benzothiazepin-4-one] | 112% | 1460 nM
CCC(CC)Oc1ccc(CN2C(=O)[C@@H](N)CS(=O)(=O)c3ccc(-c4nnc(C(C)(C)S(C)(=O)=O)o4)cc32)cc1 [Example 19, (3R)-3-amino-5-[[4-(1-ethylpropoxy)phenyl]methyl]-7-[5-(1-methyl-1-methylsulfonyl-ethyl)-1,3,4-oxadiazol-2-yl]-1,1-dioxo-2,3-dihydro-1λ6,5-benzothiazepin-4-one] | 78% | 2760 nM
CC(C)(c1nnc(-c2ccc3c(c2)N(Cc2ccc(-c4ccc(C#N)cc4)cc2)C(=O)[C@@H](N)CS3(=O)=O)o1)S(C)(=O)=O [Example 20, 4-[4-[[(3R)-3-amino-7-[5-(1-methyl-1-methylsulfonyl-ethyl)-1,3,4-oxadiazol-2-yl]-1,1,4-trioxo-2,3-dihydro-1λ6,5-benzothiazepin-5-yl]methyl]phenyl]benzonitrile] | 85% | 4010 nM
COc1ccc(-c2ccc(CN3C(=O)[C@@H](N)CS(=O)(=O)c4ccc(-c5nnc(C(C)(C)S(C)(=O)=O)o5)cc43)cc2)cc1 [Example 21, (3R)-3-amino-5-[[4-(4-methoxyphenyl)phenyl]methyl]-7-[5-(1-methyl-1-methylsulfonyl-ethyl)-1,3,4-oxadiazol-2-yl]-1,1-dioxo-2,3-dihydro-1λ6,5-benzothiazepin-4-one] | 115% | 1130 nM
COc1cccc(-c2ccc(CN3C(=O)[C@@H](N)CS(=O)(=O)c4ccc(-c5nnc(C(C)(C)S(C)(=O)=O)o5)cc43)cc2)c1 [Example 22, (3R)-3-amino-5-[[4-(3-methoxyphenyl)phenyl]methyl]-7-[5-(1-methyl-1-methylsulfonyl-ethyl)-1,3,4-oxadiazol-2-yl]-1,1-dioxo-2,3-dihydro-1λ6,5-benzothiazepin-4-one] | 47% | > 10000 nM
CC(C)(c1nnc(-c2ccc3c(c2)N(Cc2ccc(OCCC(F)(F)F)cc2)C(=O)[C@@H](N)CS3(=O)=O)o1)S(C)(=O)=O [Example 23, (3R)-3-amino-7-[5-(1-methyl-1-methylsulfonyl-ethyl)-1,3,4-oxadiazol-2-yl]-1,1-dioxo-5-[[4-(3,3,3-trifluoropropoxy)phenyl]methyl]-2,3-dihydro-1λ6,5-benzothiazepin-4-one] | 79% | 4540 nM
